Among the test systems are HOP-62; HCC 2998; T47D; LOX IMVI; SN12C; CAKI-1; SW-620; COLO 205; HOP-92; IGROV-1; M14; SK-MEL-5; MOLT-4; OVCAR-4; HT-29; OVCAR-5; SR; RPMI-8226; MCF7; NCI-H23.
Assay in all cases: NCI anticancer screen, dose series, 48 h

The results in this text go back to ChEMBL document CHEMBL1201862, “PubChem BioAssay data set” (2004).

SMILES strings stand for the structures.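 Compound exposure: 48 hours, 5 concentrations, 96-well plates. At the GI50, growth is halved.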 The source made the active and inactive calls. No stated cut-off is given here; in the data, active = GI50 up to about 1.1 µM and inactive = higher.

With `O=C1OC2(c3ccc(O)cc3Oc3cc(O)ccc32)c2c1c(-c1ccccc1)c(-c1ccccc1)c(-c1ccccc1)c2-c1ccccc1`, the GI50 in the test on HOP-62 was 23.7 µM (inactive); with HCC 2998, 16.4 µM (inactive); in the test on T47D, 26.5 µM (inactive); with LOX IMVI, 18.5 µM (inactive); with SN12C it was 25.1 µM (inactive); in the test on CAKI-1, 25.1 µM (inactive). Further, the GI50 with SW-620 is 20.9 µM (inactive); in the test on COLO 205, 19.3 µM (inactive); with HOP-92 it was 20 µM (inactive); in the test with IGROV-1, 19.1 µM (inactive); in the test with M14 it was 18.2 µM (inactive); in the test with SK-MEL-5, 27.7 µM (inactive). The GI50 in the test with MOLT-4 was 23.9 µM (inactive); with OVCAR-4 it was 27.8 µM (inactive); with HT-29, 18.7 µM (inactive); with OVCAR-5 it was 20.4 µM (inactive); with SR, 22.6 µM (inactive); in the test on RPMI-8226 it was 27.7 µM (inactive). Also, in the test on MCF7, the GI50 was 17.1 µM (inactive).

As to `CC(C)(C)N(Cc1ccc2c(c1)OCO2)C(=O)/C=C\[S+]([O-])c1ccccc1` (centres undefined), the GI50 is 4.88 µM (inactive) with HOP-62; 4.45 µM (inactive) in the test with HCC 2998; 2.56 µM (inactive) with T47D; 1.44 µM (inactive) with LOX IMVI; 2.63 µM (inactive) in the test with SN12C; 4.53 µM (inactive) in the test on CAKI-1. The GI50 in the test with SW-620 is 2.07 µM (inactive); with COLO 205 it was 3.01 µM (inactive); in the test on HOP-92, 2.29 µM (inactive); in the test on IGROV-1 it was 3.21 µM (inactive); in the test with M14, 2.28 µM (inactive); with SK-MEL-5 it was 2.82 µM (inactive). For the same compound, the GI50 is 2.3 µM (inactive) in the test on MOLT-4; 3.1 µM (inactive) in the test with OVCAR-4; 3.23 µM (inactive) with HT-29; 2.27 µM (inactive) in the test on NCI-H23; 10.7 µM (inactive) in the test with OVCAR-5; 1.44 µM (inactive) in the test on SR. Moreover, the GI50 is 1.67 µM (inactive) in the test with RPMI-8226 and 2.77 µM (inactive) with MCF7.

As to `COc1cc(/C=C2\CCC(C)C3=C(c4cc(OC)c(OC)c(OC)c4)C(C#N)=C(N)OC32)cc(OC)c1OC` (centres undefined), the GI50 in the test with HOP-62 was 7.45 µM (inactive); with HCC 2998, 4.16 µM (inactive); in the test on T47D it was 2.1 µM (inactive); in the test with LOX IMVI, 2 µM (inactive); with SN12C, 3.21 µM (inactive); with CAKI-1, 4.73 µM (inactive). Further, the GI50 was 3.97 µM (inactive) in the test on SW-620; 2.11 µM (inactive) in the test on COLO 205; 3.17 µM (inactive) in the test with HOP-92; 4.94 µM (inactive) in the test on IGROV-1; 2.23 µM (inactive) with M14; 2.61 µM (inactive) in the test with SK-MEL-5. Moreover, the GI50 in the test on MOLT-4 was 1.84 µM (inactive); with OVCAR-4, 2.97 µM (inactive); in the test on HT-29 it was 2 µM (inactive); in the test with NCI-H23, 3.72 µM (inactive); with OVCAR-5, 6.56 µM (inactive); in the test on SR it was 1.49 µM (inactive). The GI50 in the test with RPMI-8226 is 1.63 µM (inactive); in the test on MCF7, 2.24 µM (inactive).

For `[O-]c1c[n+](CC[n+]2cc([O-])on2)no1`, the GI50 in the test with HOP-62, with HCC 2998, in the test with T47D, in the test with LOX IMVI, in the test with SN12C and with CAKI-1 was > 100 µM (inactive) throughout. For the same compound, the GI50 with SW-620, in the test on COLO 205, in the test with HOP-92, in the test with IGROV-1, in the test on M14 and with SK-MEL-5 was > 100 µM (inactive) each time. Besides, the GI50 with MOLT-4, in the test on OVCAR-4, in the test on HT-29, in the test with NCI-H23, in the test on OVCAR-5 and with SR was > 100 µM (inactive) in each case. The GI50 in the test on RPMI-8226 and in the test with MCF7 was > 100 µM (inactive) in each case.

Consider `COc1ccc2c(c1)C(OC)C1c3c(cc4c(c3-2)OCO4)CCN1C` (centres undefined), for which the GI50 with HOP-62 was 2.43 µM (inactive); in the test on HCC 2998, 3.4 µM (inactive); in the test with T47D it was 6.56 µM (inactive); with LOX IMVI, 2.81 µM (inactive); in the test with SN12C, 2.64 µM (inactive); in the test on CAKI-1, 2.12 µM (inactive). Besides, the GI50 in the test with SW-620 was 2.32 µM (inactive); with COLO 205, 2.79 µM (inactive); with HOP-92, 0.925 µM (active); with IGROV-1, 2.88 µM (inactive); in the test on M14, 2.64 µM (inactive); in the test on SK-MEL-5 it was 2.43 µM (inactive). Further, the GI50 in the test on MOLT-4 was 1.95 µM (inactive); in the test on OVCAR-4 it was 2.32 µM (inactive); in the test on HT-29 it was 2.21 µM (inactive); with NCI-H23, 2.8 µM (inactive); in the test with OVCAR-5, 3.13 µM (inactive); in the test with SR, 2.4 µM (inactive). In addition, the values for the GI50 in the test with RPMI-8226 and in the test with MCF7 were 3.46 µM (inactive) and 2.67 µM (inactive), respectively.

Turning to `COc1ccc2c3c1OC1C(OC)(OC)C=C[C@@]4(Br)[C@@H](C2)N(CC2CC2)CC[C@]314` (some centres undefined), the GI50 was > 100 µM (inactive) in the test on HOP-62; > 100 µM (inactive) with HCC 2998; 97.9 µM (inactive) in the test with T47D; 87.9 µM (inactive) in the test on LOX IMVI; > 100 µM (inactive) with SN12C; 59 µM (inactive) with CAKI-1. Moreover, the GI50 in the test with SW-620 is 33.7 µM (inactive); in the test on COLO 205 it was 31.8 µM (inactive); in the test on HOP-92 it was 23.8 µM (inactive); with IGROV-1, 62.2 µM (inactive); with M14 it was 27.1 µM (inactive); in the test with SK-MEL-5 it was 37.6 µM (inactive). Moreover, the GI50 was 80.7 µM (inactive) in the test with MOLT-4; 43.7 µM (inactive) with OVCAR-4; 61.9 µM (inactive) with HT-29; 71.3 µM (inactive) in the test with NCI-H23; > 100 µM (inactive) in the test on OVCAR-5; > 100 µM (inactive) in the test with SR. Moreover, the values for the GI50 in the test on RPMI-8226 and with MCF7 were > 100 µM (inactive) and 52.1 µM (inactive), respectively.

Regarding `CC(=O)c1sc2n(C)c(=O)c3ccccc3[n+]2c1C`, the GI50 in the test on HOP-62, in the test with HCC 2998, in the test on T47D, in the test with LOX IMVI, in the test on SN12C and in the test on CAKI-1 was > 100 µM (inactive) in each case. In addition, the GI50 in the test with SW-620 was > 100 µM (inactive); in the test with COLO 205, > 100 µM (inactive); in the test with HOP-92 it was 46.5 µM (inactive); with IGROV-1, > 100 µM (inactive); with M14 it was > 100 µM (inactive); with SK-MEL-5 it was > 100 µM (inactive). The GI50 in the test with MOLT-4, in the test on OVCAR-4, with HT-29, in the test on NCI-H23, in the test on OVCAR-5 and with SR was > 100 µM (inactive) in each case. Further, the GI50 in the test with RPMI-8226 and in the test on MCF7 was > 100 µM (inactive) in each case.

As for `CO[C@H]1O[C@@H]2CO[C@@H](c3ccccc3)O[C@H]2[C@@H]2C/C=C\CCC[C@@]12O`, the GI50 in the test on HOP-62 was 18 µM (inactive); in the test with HCC 2998, 12.7 µM (inactive); in the test on T47D it was 33.2 µM (inactive); in the test with LOX IMVI, 17.8 µM (inactive); in the test with SN12C it was 17.7 µM (inactive); in the test with CAKI-1, 33.4 µM (inactive). Besides, the GI50 with SW-620 is 26.9 µM (inactive); with COLO 205 it was 17.2 µM (inactive); in the test on HOP-92, 20 µM (inactive); with IGROV-1, 30 µM (inactive); in the test on M14, 22.4 µM (inactive); in the test on SK-MEL-5, 17.8 µM (inactive). Besides, the GI50 in the test on MOLT-4 was 17 µM (inactive); in the test on OVCAR-4, 32.8 µM (inactive); with HT-29 it was 17.9 µM (inactive); with NCI-H23 it was 24 µM (inactive); in the test with OVCAR-5 it was 21.7 µM (inactive); in the test with SR, 20.3 µM (inactive). Further, the GI50 with RPMI-8226 was 17.2 µM (inactive); with MCF7, 19.2 µM (inactive).

Turning to `C=C(Cl)C(Cl)(CBr)CCC(Cl)C(C)C` (centres undefined), the GI50 in the test on HOP-62 is 1.25 µM (inactive); in the test on HCC 2998, 4.22 µM (inactive); in the test with T47D, 0.156 µM (active); with LOX IMVI, 11.6 µM (inactive); with SN12C it was 13.2 µM (inactive); with CAKI-1 it was 1.77 µM (inactive). The GI50 in the test with SW-620 is 2.47 µM (inactive); in the test with COLO 205, 4.79 µM (inactive); with HOP-92 it was 1.6 µM (inactive); in the test on IGROV-1 it was 9.31 µM (inactive); in the test with M14, 22.2 µM (inactive); in the test with SK-MEL-5, 17.7 µM (inactive). For the same compound, the GI50 in the test on MOLT-4 was > 39.9 µM (inactive); with OVCAR-4, 8.17 µM (inactive); in the test with HT-29, 0.222 µM (active); with NCI-H23, 13.7 µM (inactive); in the test with OVCAR-5 it was 10.8 µM (inactive); in the test on SR, > 36.6 µM (inactive). In addition, the GI50 in the test on RPMI-8226 is 0.138 µM (active); with MCF7, 1.12 µM (active).

Consider `Nc1cc2c(c3ccccc13)C(CCl)CN2C(=O)c1cc2cc(NC(=O)c3cc4ccccc4o3)ccc2[nH]1` (centres undefined), for which the GI50 was 0.000891 µM (active) with HOP-62; 0.00307 µM (active) in the test on HCC 2998; 0.00158 µM (active) with T47D; 0.00262 µM (active) with LOX IMVI; 0.00345 µM (active) in the test on SN12C; 0.000301 µM (active) in the test on CAKI-1. The GI50 was 0.00456 µM (active) in the test with SW-620; 0.0056 µM (active) with COLO 205; 0.0357 µM (active) in the test on HOP-92; 0.00578 µM (active) in the test on IGROV-1; 0.00455 µM (active) in the test on M14; 0.000787 µM (active) in the test with SK-MEL-5. Further, the GI50 in the test on MOLT-4 was 0.00046 µM (active); in the test on OVCAR-4, 0.00209 µM (active); with HT-29, 0.00144 µM (active); with NCI-H23, 0.000551 µM (active); with OVCAR-5, 0.00753 µM (active); with SR, 0.47 µM (active). The GI50 in the test on RPMI-8226 is 0.228 µM (active); in the test with MCF7, 0.00075 µM (active).
